Columns and labels:
N-Ras = target: T1, N-Ras (Homo sapiens, UniProt P01111); assay: Ras activation imaging: GFP-Raf-1-RBD probe translocation in LAD2 cells after FCεRI cross-linking; assay type: cell-based; conditions: LAD2 cells expressing RFP-N-Ras, pretreated with 25 μM FTS
T1 construct: expressed in transfected cells; host or cells: LAD2 human mast cell line
Experimental: The LAD2 MC, expressing functional FCεRI receptors, were established from bone marrow aspirates of a patient with MC leukemia and maintained as previously described. Transfection of LAD2 cells was performed with DMRIE-C (Invitrogen, Carlsbad, Calif.), and cells were studied 24 hours later.
(§1) For IgE-mediated activation, cells were sensitized overnight with 100 ng/ml of human myeloma IgE-biotin (Calbiochem; Merck Darmstadt, Germany) and then stimulated with 100 ng/ml of streptavidin (Jackson Immuno-Research Laboratories, West Grove, Pa.). Degranulation was quantified 20 minutes after stimulation by assaying the release of ε-hexosaminidase, a preformed mediator present in the secretory granules of MC. Release of ε-hexosaminidase was measured spectrophotometrically by assaying the cleavage of its substrate p-nitrophenyl-N-acetyl-ε-D-glucosaminide. Degranulation was expressed as a percentage of total ε-hexosaminidase activity in the cells, obtained by lysis of the cells with 0.5% triton X-100. Supernatants obtained from MC stimulated for 3 to 6 hours were examined for the released PGD2 and TNF-α by a commercial ELISA kits, according to the manufacturer's instructions (Prostaglandin D2-MOX EIA Kit, Cayman Chemical Company, Ann Arbor, Mich., and TNF-α HS Elisa kit, R&D® Systems Inc., Minneapolis, Minn.).
Live cells were plated in 35-mm dishes containing a no. […]

Ras = assay: Raf-1-RBD pull-down assay of GTP loaded Ras in stimulated LAD2 cells; assay type: cell-based, human; conditions: FCεRI cross-linking, pretreated with 25 μM FTS
Experimental: as §1, with “Minn.). Methods of detecting activated Ras by pull-down assay and by SDS-PAGE immunoblotting were performed as previously described.” for “Minn.).”

LAD2 cells [1] = assay: Mast cell degranulation (β-hexosaminidase secretion) after FCεRI cross-linking; assay type: cell-based, human; conditions: 20 minutes after stimulation
Experimental: as §1, with “The LAD2 MC, expressing functional FCεRI receptors, were established from bone marrow aspirates of a patient with MC leukemia and maintained as previously described. Transfection of LAD2 cells was performed with DMRIE-C (Invitrogen, Carlsbad, Calif.), and cells were studied 24 hours later. For” for “For”

LAD2 cells [2] = assay: PGD2 release from stimulated mast cells (ELISA); assay type: cell-based, human; conditions: 6 hours after stimulation
Experimental: as §1, with “The LAD2 MC, expressing functional FCεRI receptors, were established from bone marrow aspirates of a patient with MC leukemia and maintained as previously described. Transfection of LAD2 cells was performed with DMRIE-C (Invitrogen, Carlsbad, Calif.), and cells were studied 24 hours later. For” for “For”

LAD2 cells [3] = assay: TNF-α release from stimulated mast cells (ELISA); assay type: cell-based, human; conditions: different concentrations of FTS, 3 hours after stimulation, dose dependent, p<0.05
Experimental: as §1, with “The LAD2 MC, expressing functional FCεRI receptors, were established from bone marrow aspirates of a patient with MC leukemia and maintained as previously described. Transfection of LAD2 cells was performed with DMRIE-C (Invitrogen, Carlsbad, Calif.), and cells were studied 24 hours later. For” for “For”

BALB/c female mice = assay: IgE-dependent passive cutaneous anaphylaxis reaction, footpad swelling; assay type: in vivo; conditions: oral 100 mg/kg
Experimental: The study was approved by the Institutional Ethics Committee of Tel Aviv University. 8-10 weeks old BALB/c female mice were primed to express an IgE-dependent passive cutaneous anaphylaxis (PCA) reaction. Mice were lightly anaesthetized with ether and their left footpads were injected subcutaneously with 20 ul (20 ng) of IgE anti DNP. Their right footpads were injected with 20 ul of diluents. The next day the mice received an intraperitoneal injection of 100 ug of DNP30-40-HAS in saline. Footpad swelling was measured with an engineer's micrometer (Ozaki Mfg. Co., Itabashi, Tokyo). Footpad swelling was expressed as the difference in thickness before and after the challenge, measured at several time points after the challenge. FTS was orally administrated before the antigen challenge at 100 mg/kg as previously described.

T1 sequence (P01111 whole entry, species assumed): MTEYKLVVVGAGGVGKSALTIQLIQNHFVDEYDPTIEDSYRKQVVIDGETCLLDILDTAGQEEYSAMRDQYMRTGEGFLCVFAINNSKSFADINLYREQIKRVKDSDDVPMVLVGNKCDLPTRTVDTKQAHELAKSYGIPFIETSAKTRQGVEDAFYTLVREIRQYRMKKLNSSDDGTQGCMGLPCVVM

translocation of the probe for activated Ras (GFP-Raf-1-RBD) to the plasma membrane (N-Ras): completely blocked
Structure (SMILES): CC(C)=CCCC(C)=CCCC(C)=CCSc1ccccc1C(=O)O [FTS, S-farnesylthiosalicylic acid]
levels of GTP loaded Ras (Ras): significantly attenuated | relative reduction in the amount of activated Ras (Ras; n=4): approximately 35% | immunological degranulation (β-hexosaminidase secretion) (LAD2 cells [1]; 25 μM FTS): did not significantly modify | immunological degranulation (β-hexosaminidase secretion) (LAD2 cells [1]; 50 μM FTS): did not significantly modify | release of PGD2 (LAD2 cells [2]; 25 μM FTS): not | release of PGD2 (LAD2 cells [2]; 50 μM FTS): inhibited | TNF-α release (LAD2 cells [3]): appreciably inhibited | tissue (footpad) swelling (BALB/c female mice; three hours after antigen challenge): inhibited tissue swelling | attenuation of tissue (footpad) swelling (BALB/c female mice; three to six hours after antigen challenge): ~40%
